Results from PubChem BioAssay AID651617 (Broad Institute, 2012).

These compounds were tested on M. tuberculosis log-phase replicating growth, plate reader (assay: growth inhibition of replicating M. tuberculosis, dose response, counter-screen, dry powder (AID 651617)).
For `c1ccc(-c2nnc(SCc3cccnc3)o2)cc1`, the IC90 was 125 µM. For `[N-]=[N+]=NCCOCCNC(=O)CCCOc1ccc(CS(=O)c2nnc(-c3ccc(F)cc3)o2)nc1` (stereo not drawn), the IC90 was 125 µM. `c1ccc(-c2nnc(SCC3CC3)o2)cc1` was tested, and the IC90 was 125 µM.
